How the values were obtained:
Plasmodium falciparum = test: Antiplasmodial assay (PicoGreen growth inhibition in infected human erythrocytes); format: cell-based; settings: Erythrocyte, in vitro, W2 and 3D7 strains cultured, strain of the values not stated, read-out: Plasmodium falciparum IC50
Experimental: Activity against the causative agent of malaria was performed by culturing human erythrocytes and infecting them with P. falciparum, as described by Trager and Jensen[36]. Briefly, the W2 (Chloroquine resistant) and 3D7 (Chloroquine sensitive) strains of P. falciparum were cultured in RPMI 1640 medium (Sigma-Aldrich, USA) supplemented with 10% human serum (from O+ blood) at a hematocrit of 2% erythrocytes (O+) at 37 °C in a gas mixture of 5% CO2, 5% O2, and 90% N2. Parasites were synchronized by a temperature cycling technique as described by Almanza et al.[37]

Leishmania donovani = test: Antileishmanial assay (PicoGreen); format: cell-based; settings: in vitro, read-out: Leishmania donovani IC50
Experimental: The anti-leishmania activity was evaluated following the protocol described by Calderon et al.[39], using the fluorescent DNA intercalator PicoGreen (Invitrogen, USA). The species responsible for visceral leishmaniasis, L. donovani, was used for the assays.

[1] = Toxicity against Vero cells (MTT); format: cell-based, African green monkey; settings: African green monkey, MTT, 48 h
Experimental: (§1) It should be emphasized that toxicity is a major concern of drug discovery and development. The above active compounds were evaluated for in vitro toxicity against a mammalian kidney cell line (Vero). The selectivity index (SI) was used as the evaluation parameter of drug potential of the test samples by comparing the toxicity on the Vero cell line (CC50) and the selective inhibitory effect on P. falciparum, L. donovani or T. cruzi (IC50) calculated here as CC50/IC50.
(§2) Adriamycin was used as a positive control.

[2] = Cytotoxicity SRB assay, HCT-116; settings: human
Experimental: (§3) All of the compounds were also evaluated for their cytotoxic properties against six human cancer cell lines (lung carcinoma epithelian (A549), colon carcinoma (HCT-116), pancreatic carcinoma (BXPC-3), breast cancer (MCF-7), cervical epithelium (HeLa), and erythroleukemic (K562)) and a human umbilical vein endothelial cell (HUVEC) line (Table 2).
(§4) The cytotoxicity against HCT-116, BXPC-3, HeLa, MCF-7, A-549, and HUVEC cell lines was evaluated using the SRB method. The cytotoxicity against K562 and Vero cell lines was evaluated using the MTT method. Adriamycin was used as a positive control. All cells were cultivated in T-75 flasks containing 10% Fetal Bovine Serum (FBS), Dulbeco’s Modified Eagle Medium (DMEM) with 2 mM L-glutamine, and 1% penicillin-streptomycin at 37 °C in a humidified atmosphere with 5% CO2. For SRB assay, cells in their log phase of growth were seeded into 96 well micro plates (4 × 10^4 cells per well) and followed by treating with test samples at 10 μM or DMSO. After incubation at 37 °C for 72 h, the cells were fixed with the cold 20% (w/v) TCA for 2 h and stained with Sulforhodamine B (SRB) dye for 0.5 h. The protein-bound dye is dissolved in Tris base solution for OD determination at 540 nm on an ELISA Plate Reader. For MTT assay, cells (5 × 10^3 cells per well) were plated in 96 well micro plates. After cell attachment overnight, new medium containing test compounds or DMSO was added. The plate was incubated for 48 h at 37 °C and incubated with 3-(4,5-dimethylthiazol-2-yl)-2,5-diphenyltetrazolium bromide (MTT) for additional 2–4 hours. The assay plate was then read at 490 nm on an ELISA Plate Reader. The data were obtained from experiments carried out in triplicate.

[3] = Cytotoxicity SRB assay, BXPC-3; settings: human
Experimental: as §3, §4

[4] = Cytotoxicity SRB assay, HeLa; settings: human
Experimental: as §3, §4

[5] = Cytotoxicity SRB assay, MCF-7; settings: human
Experimental: as §3, §4

[6] = Cytotoxicity SRB assay, A-549; settings: human
Experimental: as §3, §4

[7] = Cytotoxicity MTT assay, K562; settings: human
Experimental: as §3, §4

[8] = Cytotoxicity SRB assay, HUVEC; settings: human
Experimental: as §3, §4

[9] = Cytotoxicity against the panel of six human cancer cell lines and HUVEC
Experimental: as §3, §4

[10] = Chemical stability / interconversion in solvents; format: physicochemical; settings: MeOH, EtOH, MeOH-d4 (except H2O), stationary state, within a week
Experimental: Compounds 1–6 and 11–27 were designed and synthesized through one or two-step semisynthetic reaction with high yields ranging from 65–95% from 7 and 8 (Fig. 1). The structures of new derivatives 12, 14–19, 21–22, 24, and 27 were identified by extensive spectroscopic methods including HRESIMS, ^1H NMR, and ^13C NMR. Compound 1 was prepared in yield of 95% through one-step acetonide reaction from 8. Other acetonide derivatives (11, 17, 18, 20, 23, 25, and 26) were also prepared with the same yields. Chlorination of compound 8 with sulfuryl chloride[33] followed by selective reduction with 10% Pd-C under H2 atmosphere led to the natural compound 2 (68%, yield). Acylation reaction was carried out by reaction of anhydride with the corresponding materials (1–3, and 6–8) in high yields (85–95%). In order to prepare 6, oxidation of the allyl alcohol 8 was examined under various oxidation conditions (PCC, PDC, MnO2, DMP, and IBX). However, only DMP and IBX enabled the selective oxidation of the allyl alcohol to give 6 in 65% and 35% yields, respectively (Fig. 3). […] Compounds 3–6 are diastereomers differing from each other by the absolute configurations of the 4′, 5′-diol chiral centers. The proportions of compounds 3–6 were in dynamic equilibrium, and the final ratios of 3–6 were approximately 8: 2: 5: 6 (Fig. 4). […]

Trypanosoma cruzi = test: Antitrypanosomal assay (beta-galactosidase reporter, intracellular amastigotes in Vero cells); format: cell-based; settings: Tulahuen clone C4, intracellular amastigotes in Vero cells, 120 h; for IC50: Trypanosoma cruzi, read-out: Trypanosoma cruzi IC50; as to all read-outs here: key: I: Inactive
Experimental: Briefly, the expression of the reporter gene for beta-galactosidase (β-Gal) in the Tulahuen clone C4 of T. cruzi is assessed by colorimetry at 570 nm, which correlates with the parasite growth. Assays were performed on the intracellular amastigote form of the parasite infecting African green monkey kidney (Vero) cells, incubated for 120 h at 37 °C with 5% CO2.

Vero cells = test: Toxicity against Vero cells (MTT); format: cell-based, African green monkey; settings: in vitro toxicity against mammalian kidney cell line (Vero)
Experimental: as §1, §2

P. falciparum lines 3D7 = tested on: P. falciparum lines 3D7; parameters: method as in PMID 20429578, PMID 20429578; settings: line 3D7; read-out: IC50 against P. falciparum line 3D7; cited from earlier work
P. falciparum lines Dd2 = settings: line Dd2; read-out: IC50 against P. falciparum line Dd2; cited from earlier work
[11] = Vero cells (mammalian kidney cell line)
[12] = BXPC-3 pancreatic carcinoma cells
[13] = HUVEC (umbilical vein endothelial cells)

Structure (SMILES) | IC50 (Plasmodium falciparum) | IC50 (Leishmania donovani) | CC50 at 48 h [1, 11] | IC50 at 72 h ([2]; HCT-116 colon carcinoma cells) | IC50 at 72 h [3, 12] | IC50 at 72 h ([4]; HeLa cervical epithelium cells) | IC50 at 72 h ([5]; MCF-7 breast cancer cells) | IC50 at 72 h ([6]; A-549 lung carcinoma cells) | IC50 at 48 h ([7]; K562 erythroleukemic cells) | IC50 at 72 h [8, 13] | IC50 [9] | other results
COc1cc(O)c2c(c1)/C=C/C[C@H](O)[C@H](O)C(=O)/C=C/C[C@H](C)OC2=O [Compound 6] | 14.9 µM | 1.93 µM | 3.2 µM | > 10 µM | 8.47 µM | > 10 µM | > 10 µM | > 10 µM | > 10 µM | 8.59 µM | < 10 µM | Stability in protic solvents [10]: subtle chemical conversion of 6 to 3–5
COc1cc2c(c(OC(=O)c3ccco3)c1)C(=O)O[C@@H](C)C/C=C/[C@H](OC(=O)c1ccco1)[C@@H](OC(=O)c1ccco1)[C@@H](OC(=O)c1ccco1)C/C=C/2 [Compound 15] | 22.2 µM | > 15.7 µM | 1570 µM | – | – | – | – | – | – | – | – | Trypanosoma cruzi IC50 (Trypanosoma cruzi): I; Toxicity (in words) (Vero cells): non-toxic
COc1cc(O)c2c(c1)/C=C/C[C@H](O)[C@H](O)[C@@H](O)CCC[C@H](C)OC2=O [Paecilomycin E, paecilomycin E] | – | – | – | – | – | – | – | – | – | – | – | IC50 (P. falciparum lines 3D7): 0.02 µM; IC50 (P. falciparum lines Dd2): 8.8 µM
COc1cc2c(c(OC(C)=O)c1)C(=O)O[C@@H](C)C/C=C/C(=O)[C@@H](OC(C)=O)[C@@H](OC(C)=O)C/C=C/2 [Compound 21] | > 30.7 µM | 3.69 µM | 5.8 µM | > 10 µM | > 10 µM | 6.95 µM | > 10 µM | > 10 µM | > 10 µM | 4.52 µM | < 10 µM | –
COc1cc2c(c(OC(C)=O)c1)C(=O)O[C@@H](C)C/C=C/[C@H](OC(C)=O)[C@@H](OC(C)=O)[C@@H](OC(C)=O)C/C=C/2 [Compound 13] | 6.95 µM | > 15.7 µM | 427 µM | > 10 µM | > 10 µM | > 10 µM | > 10 µM | > 10 µM | > 10 µM | > 10 µM | – | Trypanosoma cruzi IC50 (Trypanosoma cruzi): I; Toxicity (in words) (Vero cells): non-toxic
COc1cc(O)c2c(c1)/C=C/C[C@H](OC(C)=O)[C@H](OC(C)=O)C(=O)/C=C\C[C@H](C)OC2=O [Compound 27] | > 30.7 µM | 3.14 µM | < 1 µM | 2.83 µM | – | 3.85 µM | – | 7.3 µM | – | 5.9 µM | < 10 µM | –
COc1cc(O)c2c(c1)/C=C/C[C@H](O)[C@H](O)[C@H](O)CCC[C@H](C)OC2=O [Paecilomycin F, paecilomycin F] | – | – | – | – | – | – | – | – | – | – | – | IC50 (P. falciparum lines 3D7): 1.1 µM; IC50 (P. falciparum lines Dd2): 1.7 µM
COc1cc(O)c2c(c1)/C=C/C[C@@H](O)[C@H](O)C(=O)/C=C/C[C@H](C)OC2=O [Compound 3] | > 30.7 µM | 9.11 µM | – | > 10 µM | > 10 µM | 7.18 µM | > 10 µM | > 10 µM | > 10 µM | – | < 10 µM | Trypanosoma cruzi IC50 (Trypanosoma cruzi): I; Stability in protic solvents [10]: quite stable
COc1cc(O)c2c(c1)/C=C/C[C@H](OC(C)=O)[C@H](OC(C)=O)[C@@H](OC(C)=O)/C=C/C[C@H](C)OC2=O [Compound 12] | 8.36 µM | 15.7 µM | 1520 µM | > 10 µM | > 10 µM | > 10 µM | > 10 µM | > 10 µM | > 10 µM | > 10 µM | – | IC50 (Trypanosoma cruzi): 17.2 µM; Toxicity (in words) (Vero cells): non-toxic
COc1cc(O)c2c(c1)/C=C/C[C@H]1OC(C)(C)O[C@@H]1C(=O)/C=C/C[C@H](C)OC2=O [Compound 23] | > 30.7 µM | > 15.7 µM | – | – | – | – | – | – | – | – | < 10 µM | Trypanosoma cruzi IC50 (Trypanosoma cruzi): I; IC50 at 72 h [2]: 3.51 µM; IC50 at 72 h [4]: 6.59 µM; IC50 at 72 h [6]: 9.75 µM; IC50 at 72 h [8]: 7.51 µM
COc1cc(O)c2c(c1)C=CCC1OC(C)(C)OC1C(=O)C=CCC(C)OC2=O (centres unmarked) [Compound 26] | 8.95 µM | 1.24 µM | – | – | – | – | – | – | – | – | < 10 µM | CC50 at 48 h [1]: < 1 µM; IC50 at 72 h [2]: 9.16 µM; IC50 at 72 h [3]: 7.22 µM; IC50 at 72 h [4]: 4.02 µM; IC50 at 72 h [5]: > 10 µM; IC50 at 72 h [6]: > 10 µM; IC50 at 48 h [7]: > 10 µM; IC50 at 72 h [8]: 4.81 µM
COc1cc2c(c(OC(C)=O)c1)C(=O)O[C@@H](C)C/C=C/[C@@H]1OC(C)(C)O[C@H]1[C@@H](OC(C)=O)C/C=C/2 [Compound 11] | 1.84 µM | 9.22 µM | 339 µM | > 10 µM | > 10 µM | > 10 µM | > 10 µM | > 10 µM | > 10 µM | > 10 µM | – | IC50 (Trypanosoma cruzi): 11.9 µM; Toxicity (in words) (Vero cells): non-toxic
COc1cc(O)c2c(c1)/C=C/C[C@@H]1OC(C)(C)O[C@@H]1C(=O)/C=C/C[C@H](C)OC2=O [Compound 20] | > 30.7 µM | 6.46 µM | – | – | – | – | – | – | – | – | < 10 µM | CC50 at 48 h [1]: < 1 µM; IC50 at 72 h [2]: > 10 µM; IC50 at 72 h [3]: > 10 µM; IC50 at 72 h [4]: 7.21 µM; IC50 at 72 h [5]: > 10 µM; IC50 at 72 h [6]: > 10 µM; IC50 at 48 h [7]: > 10 µM; IC50 at 72 h [8]: 9.78 µM
COc1cc(O)c2c(c1)/C=C/C[C@H](O)[C@H](O)C(=O)/C=C\C[C@H](C)OC2=O [Compound 7] | 11 µM | 2.21 µM | < 1 µM | 1.09 µM | 5.07 µM | > 10 µM | > 10 µM | > 10 µM | > 10 µM | > 10 µM | < 10 µM | –

Reference: paper PMC5603512, “Discovery, Semisynthesis, Antiparasitic and Cytotoxic Evaluation of 14-Membered Resorcylic Acid Lactones and Their Derivatives” (Scientific Reports, 2017)
